Patent publication US20090252754A1, “Vaccines containing the hiv tat protein as an adjuvant for the enhancement of cytotoxic t-cell responses” (priority 2003, published 2009)

Assays:
[1] = test system: proteasome subunits (α2, LMP2, LMP7, MECL1) in Jurkat cells; experiment: Western blot of proteasome subunits in Jurkat cells expressing or treated with Tat, Tat mutants or Tat peptides; type: cell-based, human; conditions: Jurkat cells treated for 24 h with 0.1 μg/ml
Description: Jurkat T cells expressing Tat or mutated Tat (referred to as Tat22, wherein a Cys at position 22 is mutated) have previously been described (1). Cells were cultured in a medium supplemented with 800 μg/ml neomycin (Sigma, St. Louise, […].).
Cells were lysed with glass beads as previously described (4). Supernatants were ultracentrifuged for 1 h at 100,000 g and loaded into an affinity column containing a matrix derivatised with the MCP21 mAb specific for the α2 subunit of the proteasome (Affinity, Exeter, UK). Proteasomes were eluted with 25 mM Tris-HCl pH 7.5 containing 2 M NaCl, and 0.5 ml fractions were collected. Homogeneity of the eluted material was confirmed by analysis of an aliquot by SDS 12% PAGE and Coomassie blue staining of the gel. Fractions containing proteasomes were combined and dialysed against 25 mM Tris-HCl pH 7.5. Protein concentration was determined using the BCA method (Pierce Chemical, Rockford, Ill.).
Equal amounts of proteins, or equal amounts of purified proteasomes, were loaded on a 12% SDS-PAGE and electro-blotted onto Protran nitrocellulose membranes (Schleicher & Schuell, Keene, Hampshire, USA). Blots were probed with Abs specific for α2, LMP2 LMP7, MECL1, and PA28α subunits (Affinity), and developed by enhanced chemi-luminescence (ECL, Amersham Pharmacia Biotech, Uppsala, SW).

[2] = test system: ovalbumin epitopes SII, KVV, CFD on EL4 cells; experiment: Ova-specific CTL responses in vaccinated mice (cytotoxicity against peptide-pulsed EL4 cells); type: in vivo, C57BL/6 mice; conditions: fresh splenocytes; 25 μg ovalbumin alone or with 5 and 10 μg Tat, s.c., Freund's adjuvant
Description: Seven- to eight-week old female C57BL/6 mice (H-2^b) (Nossan) were injected with 25 μg ovalbumin (Sigma, St. Louis, Mo.) alone or in combination with native monomeric biologically active Tat protein (5 and 10 μg) and resuspended in degassed sterile PBS in Freund's adjuvant (CFA for the first injection, and IFA for subsequent injections). Control mice were injected with PBS alone in Freund's adjuvant. Samples (100 μl) were given by subcutaneous (s.c.) injection in one site in the back. Each experimental group consisted of five mice, and the experiment was repeated twice. Mice were boosted at day 24. Two weeks after the last injection, animals were anaesthetised i.p., as described above, and sacrificed to collect spleens. Mononuclear cells from individual spleens were purified as described above, pooled and tested in cytotoxic assay against peptide-pulsed EL4 cells.
(§1) C57BL/6 mice (H-2^b) (Harlan Nossan, Udine, I) were immunized subcutaneously, in a single site in the back, with 25 μg of ovalbumin (Sigma) alone or in combination with native monomeric biologically active Tat protein (5 and 10 μg, respectively) in Freund's adjuvant (CFA for the first injection, and IFA for subsequent injections). BALB/c mice (H-2^d) (Harlan, Udine, Italy) were immunized subcutaneously, in a single site in the back, with 5 μg of HIV-1 Gag or Env proteins alone or in combination with 5 μg of native monomeric biologically active Tat protein or with the mutant Tatcys22 protein in Freund's adjuvant or in Alum. Each group was composed of 5 animals. Immunogens were given subcutaneously in 100 μl, at days 1, 14 and 28. Mice were sacrificed 10 days after the last boost (day 38). During the course of the experiments, animals were controlled twice a week at the site of injection and for their general conditions (such as liveliness, food intake, vitality, weight, motility, sheen of hair). No signs of local nor systemic adverse reactions were ever observed in mice receiving the immunogens as compared to control or untreated mice. Animal use was according to European and institutional guidelines.

HIV-1 Env peptide pools = experiment: Env-specific IFNγ Elispot on splenocytes of immunized mice; type: in vivo, BALB/c mice
Description: as §1, with “During the course of the experiments, animals were controlled twice a week at the site of injection and for their general conditions (such as liveliness, food intake, vitality, weight, motility, sheen of hair). No signs of local nor systemic adverse reactions were ever observed in mice receiving the immunogens as compared to control or untreated mice. Animal use was according to European and institutional guidelines.” left out
Splenocytes were purified from spleens squeezed on filters (Cell Strainer, 70 μm, Nylon, Becton Dickinson). […] Cellular responses were also measured after in vitro re-stimulation. […]
Elispot (IFN-γ) was carried out using a commercially available kit provided by Becton Dickinson (murine IFNgamma ELISPOT Set; #551083), according to manufacturer's instructions. […] The spots were read using an Elispot reader (Elivis, Germany). The results are expressed as neat number of spot forming units (SFU)/10^6 cells: [mean number SFU of peptide treated wells minus mean number SFU of the negative control]. […]

21-58: peptide covering amino acids 21-58 of the wild-type sequence of Tat (ACTNCYCKKCCFHCQVCFITKALGISYGRKKRRQRRRA; UniProt P04608 21-58, looked up, fragment)
LMP2 expression in total cell lysates [1]: no discernable effect

ovalbumin
recognition of EL4 target cells pulsed with cryptic CFD epitope [2]: did not recognise
recognition of EL4 target cells pulsed with immunodominant SII epitope [2]: recognised
recognition of EL4 target cells pulsed with subdominant KVV epitope [2]: did not recognise

1-38: peptide covering amino acids 1-38 of the wild-type sequence of Tat (MEPVDPRLEPWKHPGSQPKTACTNCYCKKCCFHCQVCF; UniProt P04608 1-38, looked up, fragment)
LMP2 expression in total cell lysates [1]: no discernable effect

Env: HIV-1 Env protein (gp120 SF162, SEQ ID NO 267) from NIH AIDS Reagent Program
response of fresh splenocytes to Env-derived peptide pools (HIV-1 Env peptide pools; fresh splenocytes, IFN-γ Elispot (data not shown)): did not respond
number of Env-derived peptide pools responded to (HIV-1 Env peptide pools; vaccinated BALB/c mice): 8

47-86: peptide of amino acids 47-86 of wild-type Tat (SEQ ID NO 285) (YGRKKRRQRRRPPQGSQTHQVSLSKQPTSQSRGDPTGPKE; Human immunodeficiency virus)
LMP2 expression in total cell lysates [1]: induced down-regulation
